SMILES strings stand for the structures.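 Grown in 96-well plates, cells were treated for 48 hours with each compound at five concentrations. Insufficient inhibition: endpoint recorded as highest concentration tested. GI50 is the concentration that inhibits growth by half. TGI is the concentration that stops growth completely.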

Among the test systems are HCT-15 colon; KM12 colon; SK-MEL-5 melanoma; OVCAR-3 ovarian; A498 renal; MOLT-4 leukemia; SNB-75 CNS; UO-31 renal; MALME-3M melanoma; SF-268 CNS.
Experiment in all cases: inhibition of tumour cell growth, NCI panel, 48 h

For `CC(C)OC(=O)c1ccc(CCC2=CC(=O)C(Br)=CC2=O)cc1`, the TGI in the assay on HCT-15 colon is 29.6 µM; with KM12 colon it was 26.5 µM; with SK-MEL-5 melanoma, 25.7 µM; in the assay with OVCAR-3 ovarian, 29 µM; in the assay with A498 renal, above 85 µM; in the assay on MOLT-4 leukemia, 14 µM. Also, the TGI is 32.5 µM with SNB-75 CNS, 27.1 µM in the assay on UO-31 renal, 29.1 µM with MALME-3M melanoma and 32.3 µM in the assay on SF-268 CNS.

Regarding `CCOC(OCC)C(CCc1ccccc1)c1c(N)nc(N)[nH]c1=O` (stereo not given), the TGI with HCT-15 colon, in the assay with KM12 colon, in the assay with SK-MEL-5 melanoma, with OVCAR-3 ovarian, in the assay on A498 renal and in the assay with MOLT-4 leukemia was above 100 µM each time. The TGI in the assay on SNB-75 CNS, in the assay with UO-31 renal, with MALME-3M melanoma and with SF-268 CNS was above 100 µM each time.

Regarding `COc1ccc(N2C(=O)C3c4[nH]c5ccccc5c4C4CCC(C(C)C)CC4C3C2=O)cc1` (stereo not given), the TGI in the assay with HCT-15 colon, with KM12 colon, in the assay on SK-MEL-5 melanoma, with OVCAR-3 ovarian, in the assay with A498 renal and with MOLT-4 leukemia was above 100 µM each time. In addition, the TGI in the assay on SNB-75 CNS, in the assay on UO-31 renal, with MALME-3M melanoma and in the assay with SF-268 CNS was above 100 µM each time.

`O=C(c1ccc(Cl)cc1)N1N=C(c2ccc(Cl)cc2)CC1(O)c1cc(F)c(Cl)cc1Cl` (stereo not given): the TGI was above 100 µM with HCT-15 colon; 21.7 µM in the assay on KM12 colon; above 100 µM in the assay with SK-MEL-5 melanoma; 55.6 µM in the assay on OVCAR-3 ovarian; 58.6 µM in the assay with A498 renal; above 100 µM in the assay on MOLT-4 leukemia. Also, the TGI in the assay on SNB-75 CNS was 44.5 µM; in the assay with UO-31 renal, 22.2 µM; in the assay with MALME-3M melanoma it was above 100 µM; with SF-268 CNS it was above 100 µM.

As for `COc1ccc2[nH]c(C(=O)N3CC(CCl)c4ccc([N+](=O)[O-])cc43)cc2c1` (stereo not given), the TGI with HCT-15 colon, with KM12 colon, with SK-MEL-5 melanoma, in the assay with OVCAR-3 ovarian, in the assay with A498 renal and with MOLT-4 leukemia was above 100 µM throughout. Moreover, the TGI in the assay with SNB-75 CNS was above 88.7 µM; in the assay with UO-31 renal, above 100 µM; in the assay with MALME-3M melanoma, above 100 µM; with SF-268 CNS, above 100 µM.

With `COC(=O)c1ccc(C)cc1C1CN=NC12Cc1cc(C)c(C)cc1C2=O` (stereo not given), the TGI in the assay with HCT-15 colon was above 100 µM; in the assay with KM12 colon it was above 100 µM; in the assay on SK-MEL-5 melanoma, 49.2 µM; with OVCAR-3 ovarian, above 100 µM; in the assay with A498 renal, above 100 µM; in the assay on MOLT-4 leukemia, 93 µM. Moreover, the TGI in the assay with SNB-75 CNS, in the assay with UO-31 renal, in the assay on MALME-3M melanoma and in the assay with SF-268 CNS was above 100 µM each time.

On to `Oc1c(I)cc(I)cc1CNCCCN(Cc1ccccn1)Cc1ccccn1`, for which the GI50 with HCT-15 colon is 1.13 µM; with KM12 colon it was 0.986 µM; with SK-MEL-5 melanoma, 0.886 µM; in the assay with OVCAR-3 ovarian it was 0.948 µM; with A498 renal it was 0.661 µM; in the assay on MOLT-4 leukemia, 1.18 µM. Besides, the GI50 with SNB-75 CNS is 0.836 µM; with UO-31 renal, 0.786 µM; in the assay on MALME-3M melanoma, 0.873 µM; with SF-268 CNS, 1.18 µM. The TGI stood at 2.79 µM in the assay on HCT-15 colon; 1.97 µM in the assay with KM12 colon; 1.59 µM in the assay on SK-MEL-5 melanoma; 1.85 µM in the assay with OVCAR-3 ovarian; 1.32 µM with A498 renal; 2.92 µM in the assay with MOLT-4 leukemia. In addition, the TGI in the assay with SNB-75 CNS is 4.32 µM; in the assay with UO-31 renal it was 1.46 µM; with MALME-3M melanoma it was 1.73 µM; with SF-268 CNS, 3.21 µM.

For `COCC(=O)[C@]1(O)Cc2c(O)c3c(c(O)c2[C@@H](OC2CC(N)C(O)C(C)O2)C1)C(=O)c1c(OC)cccc1C3=O` (stereo not given in full), the TGI with HCT-15 colon worked out at 0.498 µM; with KM12 colon, 0.357 µM; in the assay with SK-MEL-5 melanoma, 0.228 µM; with OVCAR-3 ovarian it was 0.536 µM; with A498 renal, 0.624 µM; with MOLT-4 leukemia, 0.054 µM. Moreover, the TGI is 0.161 µM in the assay with SNB-75 CNS, 0.231 µM in the assay with UO-31 renal, 0.335 µM in the assay with MALME-3M melanoma and 0.267 µM in the assay with SF-268 CNS.

Consider `C[C@]12CCC(=O)C=C1CC[C@@H]1[C@@H]2C(=O)C[C@@]2(C)[C@H]1CC[C@]2(O)C(=O)CO`, for which the TGI with HCT-15 colon, in the assay on KM12 colon, in the assay on SK-MEL-5 melanoma, in the assay with OVCAR-3 ovarian, in the assay with A498 renal and in the assay with MOLT-4 leukemia was above 100 µM each time. The TGI in the assay on SNB-75 CNS, with UO-31 renal, in the assay with MALME-3M melanoma and in the assay on SF-268 CNS was above 100 µM throughout.

With `C1OCN2c3nonc3N3COCN4c5nonc5N1C2C43` (stereo not given), the TGI in the assay on HCT-15 colon, in the assay on KM12 colon, in the assay on SK-MEL-5 melanoma, with OVCAR-3 ovarian, with A498 renal and in the assay with MOLT-4 leukemia was above 100 µM each time. For the same compound, the TGI with SNB-75 CNS, in the assay with UO-31 renal, with MALME-3M melanoma and in the assay with SF-268 CNS was above 100 µM each time.

The record behind these values is PubChem BioAssay (NCI).
